Measured values: patent US7279565B2, “Molecular regulatory circuits to achieve sustained activation of genes of interest by a single stress” (priority 1998, dated 2007)

Assays:
Format in all cases: cell-based
[1] = molecular target: T1, transcription factor GLP65 (Homo sapiens, UniProt P06401); test: Molecular circuit Hsp70/GAL4-GLP65 + GAL4-fLuc in co-transfected HeLa cells, firefly luciferase assay; details: 10 nM mifepristone with or without heat treatment 43-44° C. for 30-60 min, assayed two or three days later, FIG. 6B
T1 construct: expressed in transfected cells; host or cells: human HeLa cells, transient co-transfection
T1 sequence (P06401 679-913 limits assumed): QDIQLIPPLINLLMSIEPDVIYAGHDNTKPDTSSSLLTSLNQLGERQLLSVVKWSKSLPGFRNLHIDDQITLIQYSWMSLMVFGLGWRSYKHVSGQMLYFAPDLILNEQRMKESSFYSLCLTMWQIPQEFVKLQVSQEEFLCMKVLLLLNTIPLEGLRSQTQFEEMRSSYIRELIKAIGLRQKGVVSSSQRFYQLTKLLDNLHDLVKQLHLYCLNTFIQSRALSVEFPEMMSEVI
Description: (§1) To test the molecular circuits outlined in FIG. 6A, human HeLa cells were co-transfected with appropriate amounts of Hsp70/GAL4-GLP65 and GAL4-fLuc or GAL4-hGH using Lipofectamine™ reagent (Life Technologies). For correction of differences in transfection efficiency, a small amount of pRL-CMV expressing a Renilla luciferase was also included in transfection mixtures. One day after transfection, cultures were either left untreated, were administered 10 nM mifepristone, were heat-treated (43-44° C. for 30-60 min), or were administered mifepristone and subjected to heat treatment. Two or three days later, cells were harvested and assayed for firefly luciferase activity using the Dual Luciferase Reporter Assay System (Promega Corp.) or for hGH activity using an ELISA kit distributed by Roche, respectively.

[2] = molecular target: T1, transcription factor GLP65; test: Molecular circuit Hsp70/GAL4-GLP65 + GAL4-hGH in co-transfected HeLa cells, hGH ELISA; details: 10 nM mifepristone with or without heat treatment 43-44° C. for 30-60 min, assayed two or three days later, FIG. 6C
Description: as §1

[3] = molecular target: T2, transcription factor GLP65 (Homo sapiens, UniProt P06401+Q04206); test: Stable HeLa-CAT line with genomic GAL4-fLuc and Hsp70/GAL4-GLP65-RKC transactivator, firefly luciferase assay; details: stable HeLa-CAT clonal line; mifepristone and/or heat treatment at 43° C.; assayed one day later; FIG. 7
T2 construct: expressed in transfected cells
Description: HeLa-CAT cells were cotransfected with GAL4-fLuc and Hsp70/GAL4-GLP65-RKC-neo (4:1 molar ratio), and transformants were selected using 400 μg/ml G418. Clonal lines were isolated. […] In the experiment shown in the Figure, parallel cultures of the cell line were either left untreated, or were heat-treated at 43° C. for the times indicated, exposed to mifepristone at the concentrations indicated, or both heat-treated and provided mifepristone. One day later, cells were harvested and assayed for firefly luciferase activity. […] Note that relative firefly luciferase activities are presented as fractions of the highest activity in the experiment.

[4] = system: EcR/RXR; test: Firefly luciferase reporter assay of the Hsp70/E/GRE combination promoter in transfected EcR-293 cells; details: EcR-293 cells transfected with Hsp70/E/GRE-fLuc; ponasterone A for 1-2 days
Description: To test the Hsp70/E/GRE combination promoter and compare it with the hsp70B and E/GRE promoters, EcR-293 cells were co-transfected using Lipofectamine™ reagent (Life Technologies) with Hsp70/E/GRE-fLuc, Hsp70-fLuc or E/GRE-fLuc and pRL-CMV containing a constitutively expressed Renilla luciferase gene. One day after transfection, parallel cultures were either left untreated or were subjected to a heat treatment at 43-44° C. for 30 min or to ponasterone A (Invitrogen Corp.) for 1-2 days. Cells were harvested (after ponasterone exposure or 6-7 h after heat treatment), and firefly luciferase activities were determined using the Dual Luciferase Reporter System (Promega Corp.). […] EcR-293 cells expressing activatable EcR/RXR were obtained from Invitrogen Corporation and were cultured according to the manufacturer's instructions.

T2 sequence (P06401+Q04206 fused): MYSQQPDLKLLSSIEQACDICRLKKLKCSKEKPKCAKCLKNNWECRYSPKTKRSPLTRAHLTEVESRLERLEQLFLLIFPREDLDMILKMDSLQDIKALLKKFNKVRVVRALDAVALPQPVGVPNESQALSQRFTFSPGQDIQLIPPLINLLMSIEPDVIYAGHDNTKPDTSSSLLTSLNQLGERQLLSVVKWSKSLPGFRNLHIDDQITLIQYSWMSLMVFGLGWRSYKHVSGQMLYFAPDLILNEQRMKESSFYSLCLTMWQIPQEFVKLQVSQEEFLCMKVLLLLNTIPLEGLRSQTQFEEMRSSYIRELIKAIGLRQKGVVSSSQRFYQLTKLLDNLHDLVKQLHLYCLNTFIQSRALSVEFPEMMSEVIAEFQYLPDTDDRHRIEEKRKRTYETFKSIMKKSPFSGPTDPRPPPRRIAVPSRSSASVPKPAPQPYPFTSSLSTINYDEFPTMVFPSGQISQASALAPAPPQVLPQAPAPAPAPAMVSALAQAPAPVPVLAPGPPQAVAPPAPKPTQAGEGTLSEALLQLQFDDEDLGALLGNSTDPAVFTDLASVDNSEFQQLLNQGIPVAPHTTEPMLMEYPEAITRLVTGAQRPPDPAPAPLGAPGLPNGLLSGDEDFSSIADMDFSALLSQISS

| Structure (SMILES) | expression of fLuc gene (relative firefly luciferase activity) [1] | expression of hGH gene (relative hGH activity) [2] | firefly luciferase activity of genomic luciferase gene [3] | firefly luciferase activity (induction of the Hsp70/E/GRE combination promoter) [4] |
| --- | --- | --- | --- | --- |
| CC#C[C@]1(O)CC[C@H]2[C@@H]3CCC4=CC(=O)CCC4=C3[C@@H](c3ccc(N(C)C)cc3)C[C@@]21C [mifepristone] | essentially silent, except when the cells containing the respective gene switches were stressed (heat treatment) as well as were administered mifepristone | essentially silent, except when the cells containing the respective gene switches were stressed (heat treatment) as well as were administered mifepristone | Elevated levels of luciferase activity were only measured in cells that were both administered mifepristone and had been subjected to heat treatment |  |
| CC(C)CC[C@@H](O)[C@](C)(O)[C@H]1CC[C@@]2(O)C3=CC(=O)[C@@H]4C[C@@H](O)[C@@H](O)C[C@]4(C)[C@H]3CC[C@]12C [ponasterone A] |  |  |  | strongly inducible by heat and ponasterone A |
